Assay results taken from PubChem BioAssay (NCI).
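Following 48 hours of exposure in 96-well plates, responses at five concentrations were used to interpolate endpoints linearly. Definition used: TGI = concentration required for complete inhibition of growth.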

Tests used:
Assay in all cases: NCI-60 cell line screen, 48 h
OVCAR-5 ovarian = test system: OVCAR-5 ovarian
K-562 leukemia = test system: K-562 leukemia
XF 498 CNS = test system: XF 498 CNS
NCI-H460 lung = test system: NCI-H460 lung
OVCAR-3 ovarian = test system: OVCAR-3 ovarian
UACC-257 melanoma = test system: UACC-257 melanoma
HL-60(TB) leukemia = test system: HL-60(TB) leukemia
SW-620 colon = test system: SW-620 colon
M19-MEL melanoma = test system: M19-MEL melanoma
TK-10 renal = test system: TK-10 renal
NCI-H226 lung = test system: NCI-H226 lung
HOP-62 NSCLC = test system: HOP-62 NSCLC
SNB-78 CNS = test system: SNB-78 CNS
SF-295 CNS = test system: SF-295 CNS
SK-MEL-2 melanoma = test system: SK-MEL-2 melanoma
NCI-H23 lung = test system: NCI-H23 lung
SN12C renal = test system: SN12C renal
DLD-1 colon = test system: DLD-1 colon
KM20L2 colon = test system: KM20L2 colon
CAKI-1 renal = test system: CAKI-1 renal
COLO 205 colon = test system: COLO 205 colon
SK-MEL-5 melanoma = test system: SK-MEL-5 melanoma
KM12 colon = test system: KM12 colon
MALME-3M melanoma = test system: MALME-3M melanoma
DMS 114 small cell lung = test system: DMS 114 small cell lung
HCT-15 colon = test system: HCT-15 colon
786-0 renal = test system: 786-0 renal
SR leukemia = test system: SR leukemia
HOP-92 NSCLC = test system: HOP-92 NSCLC
HCT-116 colon = test system: HCT-116 colon
SK-OV-3 ovarian = test system: SK-OV-3 ovarian
UO-31 renal = test system: UO-31 renal
A549 NSCLC = test system: A549 NSCLC
EKVX NSCLC = test system: EKVX NSCLC
SF-539 CNS = test system: SF-539 CNS
LOX IMVI melanoma = test system: LOX IMVI melanoma
DMS 273 small cell lung = test system: DMS 273 small cell lung
SF-268 CNS = test system: SF-268 CNS
HCC-2998 colon = test system: HCC-2998 colon
LXFL 529 NSCLC = test system: LXFL 529 NSCLC
IGROV1 ovarian = test system: IGROV1 ovarian
MOLT-4 leukemia = test system: MOLT-4 leukemia
OVCAR-8 ovarian = test system: OVCAR-8 ovarian
UACC-62 melanoma = test system: UACC-62 melanoma
ACHN renal = test system: ACHN renal
SK-MEL-28 melanoma = test system: SK-MEL-28 melanoma
NCI-H522 lung = test system: NCI-H522 lung
HT29 colon = test system: HT29 colon
M14 melanoma = test system: M14 melanoma
HOP-18 NSCLC = test system: HOP-18 NSCLC
OVCAR-4 ovarian = test system: OVCAR-4 ovarian
CCRF-CEM leukemia = test system: CCRF-CEM leukemia
SNB-19 CNS = test system: SNB-19 CNS
RPMI-8226 leukemia = test system: RPMI-8226 leukemia
RXF-631 renal = test system: RXF-631 renal
SNB-75 CNS = test system: SNB-75 CNS
A498 renal = test system: A498 renal
U251 CNS = test system: U251 CNS

CN(C)CCCN1N=Nc2cccc3cccc1c23
TGI (OVCAR-5 ovarian): > 100 µM
TGI (K-562 leukemia): > 65.1 µM
TGI (XF 498 CNS): > 100 µM
TGI (NCI-H460 lung): > 89.1 µM
TGI (OVCAR-3 ovarian): > 100 µM
TGI (UACC-257 melanoma): > 100 µM
TGI (HL-60(TB) leukemia): > 63.1 µM
TGI (SW-620 colon): > 54.4 µM
TGI (M19-MEL melanoma): > 95.3 µM
TGI (TK-10 renal): > 100 µM
TGI (NCI-H226 lung): > 100 µM
TGI (HOP-62 NSCLC): > 100 µM
TGI (SNB-78 CNS): > 100 µM
TGI (SF-295 CNS): > 100 µM
TGI (SK-MEL-2 melanoma): > 100 µM
TGI (NCI-H23 lung): > 100 µM
TGI (SN12C renal): > 100 µM
TGI (DLD-1 colon): > 100 µM
TGI (KM20L2 colon): > 100 µM
TGI (CAKI-1 renal): > 100 µM
TGI (COLO 205 colon): > 70.2 µM
TGI (SK-MEL-5 melanoma): > 100 µM
TGI (KM12 colon): > 100 µM
TGI (MALME-3M melanoma): > 100 µM
TGI (DMS 114 small cell lung): > 57.9 µM
TGI (HCT-15 colon): > 57.5 µM
TGI (786-0 renal): 38.2 µM
TGI (SR leukemia): 51.4 µM
TGI (HOP-92 NSCLC): > 100 µM
TGI (HCT-116 colon): > 64.6 µM
TGI (SK-OV-3 ovarian): > 100 µM
TGI (UO-31 renal): > 100 µM
TGI (A549 NSCLC): > 100 µM
TGI (EKVX NSCLC): > 100 µM
TGI (SF-539 CNS): > 100 µM
TGI (LOX IMVI melanoma): > 100 µM
TGI (DMS 273 small cell lung): 39.8 µM
TGI (SF-268 CNS): > 100 µM
TGI (HCC-2998 colon): > 100 µM
TGI (LXFL 529 NSCLC): > 87 µM
TGI (IGROV1 ovarian): > 100 µM
TGI (MOLT-4 leukemia): > 77.3 µM
TGI (OVCAR-8 ovarian): > 100 µM
TGI (UACC-62 melanoma): > 100 µM
TGI (ACHN renal): > 100 µM
TGI (SK-MEL-28 melanoma): > 100 µM
TGI (NCI-H522 lung): > 100 µM
TGI (HT29 colon): > 100 µM
TGI (M14 melanoma): > 63.6 µM
TGI (HOP-18 NSCLC): > 100 µM
TGI (OVCAR-4 ovarian): 58 µM
TGI (CCRF-CEM leukemia): > 63.4 µM
TGI (SNB-19 CNS): > 100 µM
TGI (RPMI-8226 leukemia): > 69.3 µM
TGI (RXF-631 renal): > 100 µM
TGI (SNB-75 CNS): > 100 µM
TGI (A498 renal): > 100 µM
TGI (U251 CNS): > 100 µM
